Assay results published in patent publication US20060183784A1, “Human growth hormone antagonists” (Genentech, Inc., priority 2001, published 2006).

target: binding of biotinylated human growth hormone (b-hGH) to the extracellular domain of its receptor (Homo sapiens, UniProt P01241); test: ELISA of binding of biotinylated human growth hormone (b-hGH) to the extracellular domain of its receptor; conditions: inhibition of b-hGH (about 1.5 nM) binding to receptor-coated plates; compounds re-tested at multiple concentrations
Protocol: A collection of heterocyclic aromatic compounds (384 total; 1 mmol each) was obtained from Aldrich Chemical Company or prepared as described in Holan et al., J. Chem Soc. C, 20-25 (1967)) incorporated herein by reference. Each compound was dissolved in dimethyl sulfoxide (DMSO) to yield a 100-mM solution and arrayed in 96-well polypropylene deep-well plates (Beckman). Dilutions (10-fold in DMSO) were prepared from the parent plates; these 10-mM stocks were then diluted 50-fold in the screening assay as described below (200 μM final concentration; 2% DMSO).
Human growth hormone (100 μM) in phosphate-buffered saline (PBS) was treated with 2 molar equivalents of EZ-Link Sulfo-NHS-LC-biotin™ (Pierce 21335™) according to the manufacturer's instructions. Binding of the biotinylated human growth hormone (b-hGH) to the extracellular domain of its receptor was assayed in an ELISA format. Briefly, Nunc Maxi-Sorb™ 96-well plates were treated with a solution of the receptor (2 μg/mL) in phosphate-buffered saline (PBS) overnight at 4° C. Plates were then blocked with a 0.2% solution of bovine serum albumin (BSA; Sigma A-7638) in PBS for 2 hours at room temperature. An appropriate dilution of b-hGH (generally about 1.5 nM final concentration in PBS containing 0.05% Tween-20 T detergent) was added to polypropylene plates containing aliquots of the screening collection (147 μL b-hGH to 3 μL compound in DMSO) or DMSO alone, and the mixtures were allowed to equilibrate at room temperature for approximately 45 min. These mixtures were then transferred to the receptor-coated plates and allowed to stand for 15 min. Plates were washed (10 times) with PBS/Tween-20™. Streptavidin-HRP conjugate (Zymed Laboratories 43-4323™) followed by TMB peroxidase reagent (Kirkegaard & Perry Laboratories 50-76-03™) was used to detect bound b-hGH. Several potential inhibitor compounds were re-tested at multiple concentrations. Table 1 below provides IC50 of the compounds tested.

Chain of binding of biotinylated human growth hormone (b-hGH) to the extracellular domain of its receptor (P01241 27-217): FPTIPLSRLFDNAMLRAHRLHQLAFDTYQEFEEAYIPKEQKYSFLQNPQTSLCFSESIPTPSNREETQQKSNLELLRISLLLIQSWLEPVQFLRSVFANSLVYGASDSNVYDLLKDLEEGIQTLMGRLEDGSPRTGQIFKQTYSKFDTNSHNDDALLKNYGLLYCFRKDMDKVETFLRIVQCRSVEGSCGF

SMILES	IC50 [µM]
ClC(Cl)(Cl)c1nc2ccccc2s1 [(x)]	> 1000
Cc1nc2ccccc2[nH]1 [(xi)]	> 1000
Cc1ccc2[nH]cnc2c1 [(xiii)]	> 1000
Clc1ccc2[nH]cnc2c1 [(vii)]	> 1000
Cc1nc2cc(Cl)ccc2[nH]1 [(viii)]	> 1000
c1ccc2[nH]c(-c3cscn3)nc2c1 [(xii)]	> 1000
FC(F)(F)c1nc2cc(Cl)ccc2[nH]1 [(vi)]	> 1000
ClC(Cl)(Cl)c1nc2ccccc2o1 [(ix)]	> 1000

Stronger by IC50, values ahead:

IC50 [µM]	SMILES
98	Cc1ccc2[nH]c(C(Cl)(Cl)Cl)nc2c1 [(iv)]
150	Cn1c(C(Cl)(Cl)Cl)nc2ccccc21 [(iii)]
51	Clc1cc2nc(C(Cl)(Cl)Cl)[nH]c2cc1Cl [(v)]
77	Clc1ccc2nc(C(Cl)(Cl)Cl)[nH]c2c1 [(i)]
170	ClC(Cl)(Cl)c1nc2ccccc2[nH]1 [(ii)]
